# Data: patent US8383626B2, “Nitric oxide donors for inducing neurogenesis” (Henry Ford Health System, priority 1999, dated 2013)
# Columns and labels:
# Assay type in all cases: in vivo, rat
# [1] = test system: focal embolic cerebral ischemic brain; experiment: Ischemic lesion volume after embolic MCA occlusion; conditions: ischemic rats
# Procedure: (§1) Male Wistar rats (n=30) weighing 300-350 g were subjected to middle cerebral artery (MCA) occlusion. The MCA was occluded by placement of an embolus at the origin of the MCA. Briefly, a single intact fibrin rich 24 hour old homologous clot (about 1 μl) was placed at the origin of the MCA via a fifteen mm length of modified PE-50 catheter. The experimental protocol consisted of four groups. In Group I (control group), rats were subjected to MCA occlusion and received four consecutive intravenous bolus doses of saline (0.52 ml each, every fifteen minutes) at 24 hours after ischemia. Group II (DETNO/NO precondition) rats received four consecutive intravenous bolus doses of DETANONO (0.1 mg/kg each, every fifteen minutes, and total dose 0.4 mg/kg) at 24 hours before embolization. Group III (DETANONO two set group), animals received consecutive intravenous bolus doses of DETANONO (0.1 mg/kg each, every fifteen minutes and total dose 0.4 mg/kg) at 24 and 48 hours after occlusion. Group IV (DETANONO seven set group), animals received four consecutive intravenous bolus doses of DETANONO (0.1 mg/kg each, every fifteen minutes and total dose 0.4 mg/kg) at 24 hours after embolization. Subsequently, rats were intraperitoneally injected with DETA/NO at 0.4 mg/kg every day for six consecutive days.
# [2] = test system: neuronal progenitor cells in the SVZ and in the dentate gyrus; experiment: Proliferation of neuronal progenitor cells (BrdU immunoreactive cells) in ischemic adult rats (embolic MCA occlusion)
# Procedure: (§2) Two experiments were performed. In the first experiment, the effects of NO on the proliferation of neuronal progenitor cells in the SVZ and the dentate gyrus of non ischemic adult rats were examined. In the second experiment, the effects of NO on the proliferation of neuronal progenitor cells in the SVZ and in the dentate gyrus of ischemic adult rats were examined.
# Based on above data, a second experiment was performed to explore NO effects on focal embolic cerebral ischemic brain. All procedures were the same as in the first experiment except for the following procedures.
# as §1
# [3] = test system: neuronal progenitor cells in the SVZ and the dentate gyrus; experiment: Proliferation of neuronal progenitor cells (BrdU immunoreactive cell density) in non ischemic adult rats
# Procedure: as §2
# Male Wistar rats (n=28) weighing 300-350 g were anesthetized with halothane (1-3.5% in a mixture of 70% N2O and 30% O2) using a face mask. The rectal temperature was maintained at 37±1° C. throughout the surgical procedure using a feedback regulated water heating system. The right femoral artery and vein were cannulated with a PE-50 catheter for continuous monitoring of blood pressure and measurement of blood gases (pH, pO2, pCO2) and for drug administration, respectively. DETANONOate was intravenously and intraperitoneally injected to rats.
# DETANONO treatment: Rats were randomly divided into four groups. Group 1 (single Rx), rats were intravenously injected with four consecutive bolus doses of DETANONO (0.1 mg/kg each) every fifteen minutes (total dose of 0.4 mg/kg). Group 2 (two Rx group), rats were intravenously injected with four consecutive bolus doses of DETANONO (0.1 mg/kg each) every fifteen minutes (total dose 0.4 mg/kg) and rats received a second treatment at 24 hours later. Group 3 (seven Rx group), rats received four consecutive intravenous bolus doses of DETANONO (0.1 mg/kg each) every fifteen minutes on the first experimental day and rats were intraperitoneally injected with a bolus dose of DETANONO (0.4 mg/kg) daily for an additional six consecutive days. Group 4 (control), rats received saline only (single dose).
# Rats received an intraperitoneal injection of BrdU (50 mg/kg) on the first day of DETANONO treatment and daily intraperitoneal injections of BrdU for fourteen consecutive days. To determine whether the proliferation and the differentiation of cells in the SVZ and dentate gyrus of adult rats is affected by NO, rats were sacrificed at fourteen days (n=3-5 per group) and 42 days (n=3-5 per group) after first dose of DETANONO treatment, respectively. Rats were transcardially perfused with 4% paraformaldehyde in 100 mM phosphate buffer, pH 7.4. Brains were removed and fixed in 4% formaldehyde.
# For BrdU immunostaining, DNA was first denatured by incubating brain sections (6 μm) in 50% formamide 2×SSC at 65° C. for 2 hours and then in 2N HCl at 37° C. for 30 minutes. Sections were then rinsed with Tris buffer and treated with 1% of H2O2 to block endogenous peroxidase. Sections were incubated with a primary antibody to BrdU (1:100) at room temperature for one hour and then incubated with biotinylated secondary antibody (1:200, Vector, Burlingame, Calif.) for one hour. Reaction product was detected using 3′3′-diaminobenzidine-tetrahydrochloride (DAB, Sigma).
# BrdU immunostained sections were digitized under 40× objectively (Olympus BX40) via the MCID computer imaging analysis system (Imaging Research, St. Catharines, Canada). BrdU immunoreactive nuclei were counted on a computer monitor to improve visualization and in one focal plane to avoid over-sampling. Structures were sampled either by selecting predetermined areas on each section (RMS and OB) or by analyzing entire structures on each section (dentate gyrus and SVZ).
# Every 40th coronal section was selected from each rat for a total of seven sections between AP+10.6 mm, genu corpus callosum, and AP+8.74 mm-anterior commissure crossing (Paxinos and Watson, 1986). BrdU immunoreactive-positive nuclei were counted in the lateral ventricle wall. All BrdU immunoreactive-positive nuclei in these areas are presented as the number of the BrdU immunoreactive cells/mm^2. Density for the seven sections was averaged to obtain a mean density value for each animal.
# Every 20th section was selected from each rat for a total of six sections from the sagittal series of the OB/frontal cortex. […]
smiles,measurement,setting,value
"NCCN(CCN)/[N+]([O-])=N/O [DETANONO, DETANONOate]",ischemic lesion volume,[1],did not exhibit a significant reduction
same,BrdU immunoreactive cells in the OB,"[2]; ischemic rats, 14 days and 42 days after MCA occlusion",Significant increases
same,BrdU immunoreactive cells in dentate gyrus,"[2]; ischemic rats, 14 days and 42 days, vs MCA occlusion group",significant increases
same,numbers of BrdU immunoreactive cells in the SVZ,"[2]; preconditioned group (24 hours before embolization), contralateral SVZ at 14 days, both SVZs at 42 days, vs non-treated MCA occlusion",Significant (p<0.05) increases
same,BrdU immunoreactive cells in the SVZ,"[2]; seven sets, contralateral and ipsilateral SVZ at 14 days and 42 days after MCA occlusion",significant increases
same,numbers of BrdU immunoreactive cells in the SVZ,"[2]; two dosage group (24 and 48 hours after occlusion), ipsilateral SVZ at 14 days, both SVZ at 42 days",significant increase
same,"Density of newborn cells, Olfactory bulb","[3]; ONCE, 4 weeks after last BrdU injection (42 d), Contralateral",80 ± 12.3 cells per mm^2
same,"Density of newborn cells, Olfactory bulb","[3]; ONCE, 4 weeks after last BrdU injection (42 d), Ipsilateral",75.65 ± 10.85 cells per mm^2
same,"Density of newborn cells, Rostral migratory stream","[3]; ONCE, 4 weeks after last BrdU injection, Left side",26.25 ± 6.9 cells per mm^2
same,"Density of newborn cells, Rostral migratory stream","[3]; ONCE, 4 weeks after last BrdU injection, Right side",22.5 ± 5.95 cells per mm^2
same,"Density of newborn cells, Olfactory bulb","[3]; ONCE, 1 day after last BrdU injection (14 d), Contralateral",39.75 ± 6.2 cells per mm^2
same,"Density of newborn cells, Olfactory bulb","[3]; ONCE, 1 day after last BrdU injection (14 d), Ipsilateral",41.4 ± 5.55 cells per mm^2
same,"Density of newborn cells, Rostral migratory stream","[3]; ONCE, 1 day after last BrdU injection (14 d), Left side",998.55 ± 59.7 cells per mm^2
same,"Density of newborn cells, Rostral migratory stream","[3]; ONCE, 1 day after last BrdU injection (14 d), Right side",950.25 ± 99.55 cells per mm^2
same,"Density of newborn cells, Olfactory bulb","[3]; TWICE, 4 weeks after last BrdU injection (42 d), Contralateral",98.4 ± 19.95 cells per mm^2
same,"Density of newborn cells, Olfactory bulb","[3]; TWICE, 4 weeks after last BrdU injection (42 d), Ipsilateral",85 ± 15.95 cells per mm^2
same,"Density of newborn cells, Rostral migratory stream","[3]; TWICE, 4 weeks after last BrdU injection, Left side",37.8 ± 5.15 cells per mm^2
same,"Density of newborn cells, Rostral migratory stream","[3]; TWICE, 4 weeks after last BrdU injection, Right side",32.9 ± 8.15 cells per mm^2
same,"Density of newborn cells, Olfactory bulb","[3]; TWICE, 1 day after last BrdU injection (14 d), Contralateral",99.6 ± 10.5 cells per mm^2
same,"Density of newborn cells, Olfactory bulb","[3]; TWICE, 1 day after last BrdU injection (14 d), Ipsilateral",91.65 ± 12.35 cells per mm^2
same,"Density of newborn cells, Rostral migratory stream","[3]; TWICE, 1 day after last BrdU injection (14 d), Left side",1070.85 ± 160.1 cells per mm^2
same,"Density of newborn cells, Rostral migratory stream","[3]; TWICE, 1 day after last BrdU injection (14 d), Right side",991 ± 98.25 cells per mm^2
same,BrdU immunoreactive cells in OB,"[3]; non ischemic rats, 42 days after a single set, fourteen and 42 days after two and seven sets, vs control",significant increases
same,"number of BrdU immunoreactive cells in the SVZ, seven doses vs one and two doses","[3]; non ischemic rats, fourteen days after treatment",highest number of BrdU immunoreactive cells
same,numbers of BrdU immunoreactive cells in the RMS,"[3]; non ischemic rats, fourteen days and 42 days after treatment",did not significantly increase
same,percentage of distribution of BrdU immunoreactive cells in the dentate gyrus,"[3]; non ischemic rats, fourteen days and 42 days, vs control",significantly decreases percentage of BrdU immunoreactive cells in subgranular zone and significantly increases in the granule layers
same,numbers of BrdU immunoreactive cells in the dentate gyrus,"[3]; non ischemic rats, single treatment, fourteen days and 42 days",did not significantly increase
same,numbers of BrdU immunoreactive cells in the dentate gyrus,"[3]; non ischemic rats, two and seven sets, fourteen days and 42 days, vs control",significant (p<0.01) increases
same,numbers of BrdU immunoreactive cells in the SVZ,"[3]; non ischemic rats, vs saline at fourteen days and 42 days after treatment",significant (p<0.05) increase
same,"Density of newborn cells, Olfactory bulb","[3]; × 7 TIMES, 4 weeks after last BrdU injection (42 d), Contralateral",100.65 ± 19 cells per mm^2
same,"Density of newborn cells, Olfactory bulb","[3]; × 7 TIMES, 4 weeks after last BrdU injection (42 d), Ipsilateral",84.4 ± 7.1 cells per mm^2
same,"Density of newborn cells, Rostral migratory stream","[3]; × 7 TIMES, 4 weeks after last BrdU injection, Left side",47.5 ± 15.6 cells per mm^2
same,"Density of newborn cells, Rostral migratory stream","[3]; × 7 TIMES, 4 weeks after last BrdU injection, Right side",45 ± 11.35 cells per mm^2
same,"Density of newborn cells, Olfactory bulb","[3]; × 7 TIMES, 1 day after last BrdU injection (14 d), Contralateral",116.55 ± 16.45 cells per mm^2
same,"Density of newborn cells, Olfactory bulb","[3]; × 7 TIMES, 1 day after last BrdU injection (14 d), Ipsilateral",106.25 ± 17.7 cells per mm^2
same,"Density of newborn cells, Rostral migratory stream","[3]; × 7 TIMES, 1 day after last BrdU injection (14 d), Left side",1312.5 ± 265 cells per mm^2
same,"Density of newborn cells, Rostral migratory stream","[3]; × 7 TIMES, 1 day after last BrdU injection (14 d), Right side",1169.4 ± 218.85 cells per mm^2
